# Calls of active or inactive are those of the source.
# How the values were obtained:
# [1] = biological target: T1, Neuropeptide Y receptor type 1 (Homo sapiens, UniProt P25929); test: Fluorescence-based counterscreen for potentiators or agonists of NPY-Y2: cell-based high-throughput dose response assay for potentiators or agonists of NPY-Y1.; assay type: functional
# T1 sequence (P25929 whole entry): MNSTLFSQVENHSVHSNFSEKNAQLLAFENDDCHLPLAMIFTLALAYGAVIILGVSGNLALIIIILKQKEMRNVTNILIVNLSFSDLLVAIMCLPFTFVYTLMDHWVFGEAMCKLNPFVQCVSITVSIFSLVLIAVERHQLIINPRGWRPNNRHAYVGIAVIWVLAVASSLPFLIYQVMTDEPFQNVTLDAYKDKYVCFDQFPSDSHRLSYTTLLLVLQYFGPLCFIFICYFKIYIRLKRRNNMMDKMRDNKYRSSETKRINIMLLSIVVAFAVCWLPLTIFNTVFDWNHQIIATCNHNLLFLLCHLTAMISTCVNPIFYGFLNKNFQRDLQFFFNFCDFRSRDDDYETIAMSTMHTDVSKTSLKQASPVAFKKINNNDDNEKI
# HEK293 = test: Fluorescence-based counterscreen for potentiators or agonists of NPY-Y2: cell-based high-throughput dose response assay to identify inhibitors of cyclic nucleotide gated ion channel (CNGC) activity. In this assay, the parental HEK293 cell line transfected with a cyclic-nucleotide gated ion channel (CNGC)-based cAMP sensor is used to measure inhibition of isoproterenol-induced CNGC activity by test compound.; assay type: functional; conditions: Homo sapiens;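 also: stimulus is 1 µM isoproterenol at EC100 plus PDE inhibitor Ro 20-1724 at 25 µM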
# [2] = biological target: T2, Neuropeptide Y receptor type 2 (Homo sapiens, UniProt P49146); test: Fluorescence-based cell-based high-throughput dose response assay for agonists of NPY-Y2. [Related pubchem assays: 1703 (Screening assay (CNGC inhibitors).), 1359 (Screening assay (NPY-Y2 potentiators or agonists).), 1304 (Screening assay (NPY-Y1 potentiators or agonists).), 1710 (Screening assay (NPY-Y2 agonists).), 1791 (Summary AID.)]; assay type: functional
# T2 sequence (P49146 whole entry): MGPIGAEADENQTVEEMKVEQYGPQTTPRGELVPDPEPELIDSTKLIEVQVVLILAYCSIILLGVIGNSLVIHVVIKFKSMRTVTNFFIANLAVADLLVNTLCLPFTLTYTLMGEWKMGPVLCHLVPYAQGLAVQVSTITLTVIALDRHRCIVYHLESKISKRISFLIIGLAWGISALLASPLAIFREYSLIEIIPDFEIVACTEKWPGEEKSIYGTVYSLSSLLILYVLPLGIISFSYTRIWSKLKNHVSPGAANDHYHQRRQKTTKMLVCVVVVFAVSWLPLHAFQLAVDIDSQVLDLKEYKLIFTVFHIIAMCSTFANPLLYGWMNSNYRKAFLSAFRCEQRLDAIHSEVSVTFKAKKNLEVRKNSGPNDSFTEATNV
# [3] = biological target: T2, Neuropeptide Y receptor type 2; test: Fluorescence-based cell-based high-throughput dose response assay for potentiators or agonists of NPY-Y2. [Related pubchem assays: 1539 (Screening assay (NPY-Y2 potentiators or agonists).), 1703 (Screening assay (CNGC inhibitors).), 1359 (Screening assay (NPY-Y2 potentiators or agonists).), 1304 (Screening assay (NPY-Y1 potentiators or agonists).) …; assay type: functional
# [4] = biological target: T1, Neuropeptide Y receptor type 1; test: Fluorescence-based counterscreen for agonists of NPY-Y2: cell-based high-throughput dose response assay for agonists of NPY-Y1.; assay type: functional
# Vero [5] = test: cytotoxicity of synthesized analogs in Vero cells, SAR follow-up, cytotoxicity control for West Nile virus antiviral project, cell-based, set II (AID 2402); assay type: functional; conditions: Chlorocebus sabaeus
# Vero [6] = test: Vero E6 cell cytotoxicity, SAR follow-up, cytotoxicity control for West Nile virus antiviral project, synthesized analogs (AID 2244); assay type: functional; conditions: Chlorocebus sabaeus
# Wee1-like protein kinase = Wee1-like protein kinase (Homo sapiens, UniProt P30291); test: G2/M cell cycle arrest in HeLa, late-stage follow-up, mechanism study for Wee1 degradation inhibitor project, FACS, panel member Wee1 Degradation (AID 2088)
# [7] = biological target: G2/mitotic-specific cyclin-B1 (Homo sapiens, UniProt P14635); test: G2/M cell cycle arrest in HeLa, late-stage follow-up, mechanism study for Wee1 degradation inhibitor project, FACS, panel member Cyclin B Degradation (AID 2088)
# Chain of G2/mitotic-specific cyclin-B1 (P14635 whole entry): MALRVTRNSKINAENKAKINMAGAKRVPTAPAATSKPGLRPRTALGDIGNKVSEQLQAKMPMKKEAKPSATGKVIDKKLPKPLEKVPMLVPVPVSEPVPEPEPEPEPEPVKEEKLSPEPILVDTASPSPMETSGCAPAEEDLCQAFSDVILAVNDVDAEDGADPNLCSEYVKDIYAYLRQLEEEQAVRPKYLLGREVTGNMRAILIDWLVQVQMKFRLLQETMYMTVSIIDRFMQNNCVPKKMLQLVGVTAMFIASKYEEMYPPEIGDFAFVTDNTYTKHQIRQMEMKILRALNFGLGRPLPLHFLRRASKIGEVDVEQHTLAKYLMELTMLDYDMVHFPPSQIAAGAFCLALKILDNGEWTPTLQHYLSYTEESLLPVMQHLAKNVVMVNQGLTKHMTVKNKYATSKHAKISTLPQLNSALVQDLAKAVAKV
# [8] = biological target: Melanin-concentrating hormone receptor 1 (Homo sapiens, UniProt Q99705); test: Late-stage fluorescence-based counterscreen for antagonists of the G-protein coupled receptor 7 (GPR7): cell-based dose response assay to identify antagonists of the melanin-concentrating hormone receptor 1 (MCHR1). [Related pubchem assays (depositor defined):AID1861, AID1880, AID1952, AID2148, AID2251, AID2257, AID485339]; assay type: functional;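 also: stimulated with 30 nM MCH peptide agonist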
# Chain of Melanin-concentrating hormone receptor 1 (Q99705 whole entry): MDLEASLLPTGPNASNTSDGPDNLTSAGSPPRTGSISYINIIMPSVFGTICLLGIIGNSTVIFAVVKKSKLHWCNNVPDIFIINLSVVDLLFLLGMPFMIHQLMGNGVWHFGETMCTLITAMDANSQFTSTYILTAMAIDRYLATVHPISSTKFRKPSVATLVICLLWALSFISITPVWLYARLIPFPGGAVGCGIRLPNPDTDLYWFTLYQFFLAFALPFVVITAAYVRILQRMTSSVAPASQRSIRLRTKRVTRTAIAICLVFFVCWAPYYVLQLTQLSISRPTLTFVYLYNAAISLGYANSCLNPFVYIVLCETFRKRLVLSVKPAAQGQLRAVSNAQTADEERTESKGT
# [9] = biological target: T3, Neuropeptides B/W receptor type 1 (Homo sapiens, UniProt P48145); test: GPR7 antagonist potency, late-stage follow-up, cell-based, fluorescence, dose response (AID 463251); assay type: functional
# T3 sequence (P48145 whole entry): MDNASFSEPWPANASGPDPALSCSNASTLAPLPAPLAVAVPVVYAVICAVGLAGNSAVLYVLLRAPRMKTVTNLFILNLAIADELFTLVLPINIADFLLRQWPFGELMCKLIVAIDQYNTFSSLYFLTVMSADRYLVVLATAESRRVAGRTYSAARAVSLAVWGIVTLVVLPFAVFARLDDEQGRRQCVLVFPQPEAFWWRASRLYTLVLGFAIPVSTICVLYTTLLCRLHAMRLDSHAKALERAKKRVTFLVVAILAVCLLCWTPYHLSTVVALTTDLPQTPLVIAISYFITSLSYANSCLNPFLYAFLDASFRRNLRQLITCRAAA
# Staphylococcus aureus = test: Inhibitors of Bacterial Quorum Sensing Structure Activity Relationship (SAR) Analysis: Dose Response Assay. [Related pubchem assays: 700, 527 ]; assay type: functional, organism-based
# [10] = biological target: Lysosomal acid glucosylceramidase (Homo sapiens, UniProt P04062); test: Dose response cell-based high throughput screening assay to identify enhancers of beta-glucosidase activity. [Related pubchem assays: 784 ]; assay type: functional
# Chain of Lysosomal acid glucosylceramidase (P04062 whole entry): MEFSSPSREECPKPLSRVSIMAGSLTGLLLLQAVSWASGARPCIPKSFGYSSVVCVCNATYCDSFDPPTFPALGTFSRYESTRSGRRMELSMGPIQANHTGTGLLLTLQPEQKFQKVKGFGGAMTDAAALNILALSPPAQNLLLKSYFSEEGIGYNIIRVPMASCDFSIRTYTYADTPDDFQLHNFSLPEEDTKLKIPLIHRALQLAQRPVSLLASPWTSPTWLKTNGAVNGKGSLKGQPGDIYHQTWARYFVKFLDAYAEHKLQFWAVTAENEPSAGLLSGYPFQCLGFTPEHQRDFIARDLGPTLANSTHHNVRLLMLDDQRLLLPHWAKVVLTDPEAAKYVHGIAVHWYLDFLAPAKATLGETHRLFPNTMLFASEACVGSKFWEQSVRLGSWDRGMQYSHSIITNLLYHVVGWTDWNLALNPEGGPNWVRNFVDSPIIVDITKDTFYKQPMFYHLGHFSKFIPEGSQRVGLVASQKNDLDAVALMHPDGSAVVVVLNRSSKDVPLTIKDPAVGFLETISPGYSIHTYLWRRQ
# Cytochrome P450 2D6 = Cytochrome P450 2D6 (Homo sapiens, UniProt P10635); test: qHTS Assay for Inhibitors and Substrates of Cytochrome P450 2D6. [Related pubchem assays: 410 ]; assay type: ADME; conditions: read-out: Potency
# Chain of Cytochrome P450 2D6 (P10635 whole entry): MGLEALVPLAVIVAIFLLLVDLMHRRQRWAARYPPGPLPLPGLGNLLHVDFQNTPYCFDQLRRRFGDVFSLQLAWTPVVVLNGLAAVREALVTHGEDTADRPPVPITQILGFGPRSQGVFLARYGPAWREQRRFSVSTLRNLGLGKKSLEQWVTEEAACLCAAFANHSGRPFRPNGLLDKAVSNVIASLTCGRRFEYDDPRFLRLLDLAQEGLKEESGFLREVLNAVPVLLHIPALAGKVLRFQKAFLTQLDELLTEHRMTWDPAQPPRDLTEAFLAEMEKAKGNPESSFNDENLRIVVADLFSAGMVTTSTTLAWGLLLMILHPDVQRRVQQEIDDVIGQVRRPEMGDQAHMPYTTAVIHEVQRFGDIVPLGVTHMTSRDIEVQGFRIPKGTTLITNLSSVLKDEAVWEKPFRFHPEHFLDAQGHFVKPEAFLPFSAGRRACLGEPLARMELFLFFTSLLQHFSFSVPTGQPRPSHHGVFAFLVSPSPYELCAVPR
# Cytochrome P450 2C9 = Cytochrome P450 2C9 (Homo sapiens, UniProt P11712); conditions: Potency
# Chain of Cytochrome P450 2C9 (P11712 whole entry): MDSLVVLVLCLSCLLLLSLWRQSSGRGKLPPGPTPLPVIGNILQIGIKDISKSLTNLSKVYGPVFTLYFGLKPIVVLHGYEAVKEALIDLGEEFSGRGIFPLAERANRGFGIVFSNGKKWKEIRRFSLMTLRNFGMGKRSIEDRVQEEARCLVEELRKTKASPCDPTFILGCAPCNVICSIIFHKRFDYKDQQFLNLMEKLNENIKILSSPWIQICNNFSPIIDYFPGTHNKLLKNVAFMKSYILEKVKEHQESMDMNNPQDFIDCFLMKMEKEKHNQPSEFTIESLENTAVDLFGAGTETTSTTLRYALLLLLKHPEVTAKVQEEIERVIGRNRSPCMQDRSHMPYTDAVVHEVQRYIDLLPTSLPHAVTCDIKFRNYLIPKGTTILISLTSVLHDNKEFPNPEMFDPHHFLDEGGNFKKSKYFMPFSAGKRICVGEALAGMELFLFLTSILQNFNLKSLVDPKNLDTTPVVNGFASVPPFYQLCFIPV
# [11] = Luminescence-based counterscreen assay for KLF5 inhibitors: dose response cell-based high throughput screening assay to identify cytotoxic compounds using the IEC-6 intestinal epithelial cell line. [Related pubchem assays: 1700 (Primary screen.), 1834 (Confirmation screen.), 1858 (Summary AID.), 1905 (Counterscreen.)]; assay type: functional
# DLD-1 = test: cytotoxicity in DLD-1 colorectal cells, late-stage follow-up, cytotoxicity control for KLF5 inhibitor project, cell-based, luminescence, round 1 (AID 485338); assay type: functional; conditions: Homo sapiens
# [12] = biological target: Signal transducer and activator of transcription 3 (Homo sapiens, UniProt P40763); test: STAT3 activators, late-stage profile, late-stage follow-up, cell-based, STAT1 reporter, BCL3 qPCR, cytotoxicity, panel member STAT3 Activation (AID 2049)
# Chain of Signal transducer and activator of transcription 3 (P40763 whole entry): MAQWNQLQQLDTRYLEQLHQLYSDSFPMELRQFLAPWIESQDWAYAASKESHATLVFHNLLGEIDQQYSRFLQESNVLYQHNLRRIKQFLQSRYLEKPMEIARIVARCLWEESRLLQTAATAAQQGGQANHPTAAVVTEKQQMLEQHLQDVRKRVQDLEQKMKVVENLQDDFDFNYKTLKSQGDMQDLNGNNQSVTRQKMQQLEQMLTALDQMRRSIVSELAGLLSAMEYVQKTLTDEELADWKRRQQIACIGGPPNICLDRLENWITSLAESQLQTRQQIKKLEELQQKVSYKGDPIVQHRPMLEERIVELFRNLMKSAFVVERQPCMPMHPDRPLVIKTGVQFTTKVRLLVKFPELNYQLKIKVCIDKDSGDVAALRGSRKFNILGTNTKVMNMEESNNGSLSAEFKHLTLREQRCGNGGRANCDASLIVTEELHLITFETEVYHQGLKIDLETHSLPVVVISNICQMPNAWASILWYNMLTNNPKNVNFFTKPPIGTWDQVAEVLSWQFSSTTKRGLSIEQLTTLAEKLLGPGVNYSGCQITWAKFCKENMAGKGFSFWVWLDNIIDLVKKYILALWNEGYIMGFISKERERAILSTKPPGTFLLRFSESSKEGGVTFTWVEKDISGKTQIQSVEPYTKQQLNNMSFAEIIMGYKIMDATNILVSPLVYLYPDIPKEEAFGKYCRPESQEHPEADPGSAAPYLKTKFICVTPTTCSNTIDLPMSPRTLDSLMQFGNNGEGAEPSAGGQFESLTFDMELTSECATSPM
# Cytochrome P450 3A4 = Cytochrome P450 3A4 (Homo sapiens, UniProt P08684); conditions: Potency;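 also: confirmatory qHTS run detecting inhibitors and substrates of CYP3A4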
# Chain of Cytochrome P450 3A4 (P08684 whole entry): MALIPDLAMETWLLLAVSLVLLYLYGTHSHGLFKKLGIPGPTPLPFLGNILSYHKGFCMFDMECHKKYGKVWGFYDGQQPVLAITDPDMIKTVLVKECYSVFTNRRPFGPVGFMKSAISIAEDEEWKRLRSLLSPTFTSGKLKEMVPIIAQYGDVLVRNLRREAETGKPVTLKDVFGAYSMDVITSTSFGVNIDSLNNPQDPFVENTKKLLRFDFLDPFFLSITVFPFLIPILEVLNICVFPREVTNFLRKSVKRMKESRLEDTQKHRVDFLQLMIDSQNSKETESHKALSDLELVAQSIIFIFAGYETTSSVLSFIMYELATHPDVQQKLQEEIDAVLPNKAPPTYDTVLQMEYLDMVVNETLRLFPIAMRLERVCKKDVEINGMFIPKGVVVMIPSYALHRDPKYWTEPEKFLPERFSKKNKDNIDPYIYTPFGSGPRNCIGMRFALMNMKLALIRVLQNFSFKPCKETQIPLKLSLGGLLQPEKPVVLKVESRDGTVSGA
# Salmon testes DNA = test: DNA intercalators displacing acridine orange, dose response, artefact control for KSHV LANA DNA-binding inhibitor project, biochemical, fluorescence polarization, cherry-picked samples, set 2 (AID 504727); parameters: species or system Salmonidae
# ORF 73 = biological target: T4, ORF 73 (Human herpesvirus 8, UniProt O40947); test: inhibitors of C-LANA binding to LBS DNA, dose response, biochemical, fluorescence polarization, cherry-picked samples (AID 504725); parameters: species or system Human gammaherpesvirus 8;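 also: fluorescence polarization of a labeled DNA duplex reporting LANA DNA binding; potency is for inhibitors that block LANA binding to the DNA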
# T4 sequence (O40947 whole entry): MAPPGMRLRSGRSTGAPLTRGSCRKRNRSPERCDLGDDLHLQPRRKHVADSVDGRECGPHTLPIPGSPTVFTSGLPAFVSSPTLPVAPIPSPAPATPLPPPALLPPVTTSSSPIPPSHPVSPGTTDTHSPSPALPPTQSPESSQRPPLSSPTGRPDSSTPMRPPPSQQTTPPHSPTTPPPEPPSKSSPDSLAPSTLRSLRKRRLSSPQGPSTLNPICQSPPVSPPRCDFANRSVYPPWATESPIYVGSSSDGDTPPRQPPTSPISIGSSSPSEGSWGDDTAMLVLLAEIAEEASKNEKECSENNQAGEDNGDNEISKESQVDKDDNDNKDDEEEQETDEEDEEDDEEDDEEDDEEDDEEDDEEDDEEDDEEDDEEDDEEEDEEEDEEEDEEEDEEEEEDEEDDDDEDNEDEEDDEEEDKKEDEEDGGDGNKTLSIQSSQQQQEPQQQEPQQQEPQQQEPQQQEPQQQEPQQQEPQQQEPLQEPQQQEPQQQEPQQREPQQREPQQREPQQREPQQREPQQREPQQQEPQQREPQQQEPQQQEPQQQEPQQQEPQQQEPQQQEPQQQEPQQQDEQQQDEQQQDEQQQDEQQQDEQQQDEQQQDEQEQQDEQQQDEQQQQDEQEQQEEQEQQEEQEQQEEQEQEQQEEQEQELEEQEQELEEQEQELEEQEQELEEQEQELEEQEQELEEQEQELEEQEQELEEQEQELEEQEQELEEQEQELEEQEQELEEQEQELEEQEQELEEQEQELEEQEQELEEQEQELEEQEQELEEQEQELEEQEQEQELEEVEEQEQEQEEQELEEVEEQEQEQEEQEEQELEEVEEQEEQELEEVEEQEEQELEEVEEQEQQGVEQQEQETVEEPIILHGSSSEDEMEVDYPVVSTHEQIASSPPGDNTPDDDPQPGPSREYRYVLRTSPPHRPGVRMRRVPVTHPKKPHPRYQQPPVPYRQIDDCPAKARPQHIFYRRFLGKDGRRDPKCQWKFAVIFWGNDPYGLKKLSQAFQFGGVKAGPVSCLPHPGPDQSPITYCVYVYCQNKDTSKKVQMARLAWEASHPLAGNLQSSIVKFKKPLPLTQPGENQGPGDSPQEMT
# Genome polyprotein = Genome polyprotein (dengue virus type 2, UniProt P29990); test: Dengue-2 NS5 methyltransferase inhibitors, primary screen, biochemical, confirmation dose response (AID 588689); assay type: functional
# Chain of Genome polyprotein (P29990 2492-3391 limits assumed): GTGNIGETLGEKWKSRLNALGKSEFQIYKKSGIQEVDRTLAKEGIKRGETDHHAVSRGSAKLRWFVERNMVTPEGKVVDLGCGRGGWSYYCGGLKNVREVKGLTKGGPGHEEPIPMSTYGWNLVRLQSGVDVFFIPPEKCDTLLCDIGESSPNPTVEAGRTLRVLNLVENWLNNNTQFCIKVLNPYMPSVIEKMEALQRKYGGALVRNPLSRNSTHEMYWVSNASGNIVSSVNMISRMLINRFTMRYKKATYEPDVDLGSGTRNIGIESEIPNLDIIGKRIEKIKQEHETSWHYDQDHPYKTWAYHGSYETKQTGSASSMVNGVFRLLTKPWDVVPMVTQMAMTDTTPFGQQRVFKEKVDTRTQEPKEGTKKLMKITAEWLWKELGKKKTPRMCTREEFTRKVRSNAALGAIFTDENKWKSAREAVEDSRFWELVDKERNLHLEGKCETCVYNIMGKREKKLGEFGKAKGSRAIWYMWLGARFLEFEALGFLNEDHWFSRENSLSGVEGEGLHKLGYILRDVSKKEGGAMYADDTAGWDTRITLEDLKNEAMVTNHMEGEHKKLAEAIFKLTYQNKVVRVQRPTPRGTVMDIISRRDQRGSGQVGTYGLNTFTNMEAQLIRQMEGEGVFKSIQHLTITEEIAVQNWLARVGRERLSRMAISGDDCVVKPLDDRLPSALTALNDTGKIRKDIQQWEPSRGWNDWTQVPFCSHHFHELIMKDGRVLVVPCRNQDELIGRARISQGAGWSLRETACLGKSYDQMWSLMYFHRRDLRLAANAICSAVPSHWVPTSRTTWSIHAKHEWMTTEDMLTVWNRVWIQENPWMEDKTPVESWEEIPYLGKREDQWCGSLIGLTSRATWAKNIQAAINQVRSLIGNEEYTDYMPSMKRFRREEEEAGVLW
# [13] = biological target: T5, Small ubiquitin-related modifier 1 (Homo sapiens, UniProt P63165); test: inhibitors of SUMO1 peptide binding, dose response, biochemical, fluorescence polarization, uHTS hits (AID 624382); assay type: functional; conditions: read-out: IC50_Mean
# T5 sequence (P63165 whole entry): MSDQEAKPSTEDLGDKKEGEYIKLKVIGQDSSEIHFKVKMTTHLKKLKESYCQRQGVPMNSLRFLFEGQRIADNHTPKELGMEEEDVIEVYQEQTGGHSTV
# [14] = biological target: T5, Small ubiquitin-related modifier 1; test: inhibitors of SUMO1 partner interactions, dose response, biochemical, FRET (AID 624383); assay type: functional; conditions: read-out: IC50_Mean
# [15] = biological target: T6, Rac GTPase-activating protein 1 (Homo sapiens, UniProt Q9H0H5); test: MgcRacGAP GTPase-activating activity inhibitors, confirmation, biochemical, ADP Hunter fluorescence, primary and confirmatory (AID 624330); assay type: functional
# T6 sequence (Q9H0H5 whole entry): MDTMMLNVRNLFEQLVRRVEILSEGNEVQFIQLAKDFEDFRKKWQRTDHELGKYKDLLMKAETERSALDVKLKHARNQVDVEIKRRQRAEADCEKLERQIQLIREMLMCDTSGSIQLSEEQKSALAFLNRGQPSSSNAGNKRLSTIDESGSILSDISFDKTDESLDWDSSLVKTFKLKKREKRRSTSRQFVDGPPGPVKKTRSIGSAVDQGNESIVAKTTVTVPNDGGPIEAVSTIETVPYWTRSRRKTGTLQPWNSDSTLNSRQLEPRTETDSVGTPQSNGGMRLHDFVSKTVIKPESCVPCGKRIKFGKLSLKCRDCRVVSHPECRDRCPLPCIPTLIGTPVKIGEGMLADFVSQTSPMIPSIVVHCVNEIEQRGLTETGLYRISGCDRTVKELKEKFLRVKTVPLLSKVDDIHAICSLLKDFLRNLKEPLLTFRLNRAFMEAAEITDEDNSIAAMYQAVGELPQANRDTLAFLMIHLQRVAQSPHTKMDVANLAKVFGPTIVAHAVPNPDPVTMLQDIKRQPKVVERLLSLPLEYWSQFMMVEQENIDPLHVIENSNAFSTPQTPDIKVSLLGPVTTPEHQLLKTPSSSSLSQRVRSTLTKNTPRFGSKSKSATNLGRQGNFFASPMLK
compound,measurement,setting,value
Cc1cccc2c(N)c3c(nc12)CCCC3.O=C(O)c1cc([N+](=O)[O-])ccc1Cl,EC50,[1],5.53 µM (active)
same,EC50,HEK293,8.74 µM (active)
same,EC50,[2],3.65 µM (active)
same,EC50,[3],5.24 µM (active)
same,EC50,[4],3.41 µM (active)
O=c1c2cc(Cl)cc(Cl)c2nc2n1CCC2,CC50,Vero [5],> 100 µM (active)
same,CC50,Vero [6],> 40 µM (active)
Cc1cccc(CC(=O)Nc2cc(C)nn2-c2nc(C)cc(=O)[nH]2)c1,EC50,Wee1-like protein kinase,> 49.7 µM (inactive)
same,EC50,[7],> 49.7 µM (inactive)
O=C(C1CCCCN1Cc1cccc(Cl)c1)N1CCN(c2ccc([N+](=O)[O-])cc2)CC1 (stereo not given),IC50,[8],2.9 µM (active)
same,IC50,[9],2.8 µM (active)
CC(C)c1ccc(NC(=O)C(c2ccc3c(c2)OCO3)N2CCCCC2)cc1 (stereo not given),IC50,Staphylococcus aureus,0.254 µM (active)
N#Cc1c2n(c3c(=O)n(Cc4ccccc4Cl)cnc13)CCCCC2,EC50,[10],> 50 µM (not active)
CC(=O)OC(C)(C)/N=N\c1ccc(Br)cc1,AC50,Cytochrome P450 2D6,3.16 µM (inconclusive)
same,AC50,Cytochrome P450 2C9,5.01 µM (inconclusive)
CCOC(=O)c1sc(NC(=O)c2cc3c(s2)CCC(C)C3)nc1C (stereo not given),IC50,[11],> 39.8 µM (not active)
same,IC50,DLD-1,19.3 µM (inactive)
COc1ccc(OC)c(NC(=O)c2cc(CN3CCCC3)on2)c1,EC50,[12],> 55.7 µM (inactive)
C[C@@H]1CCC2[C@@H](C)[C@@H](O)O[C@@H]3O[C@@]4(C)CC[C@@H]1[C@@]23OO4 (stereo not given in full),AC50,Cytochrome P450 3A4,12.6 µM (inconclusive)
Nc1cccc2c(O)cc(S(=O)(=O)O)cc12,AC50,Salmon testes DNA,132 µM (active)
same,AC50,ORF 73,29.7 µM (active)
same,IC50,Genome polyprotein,42.7 µM (active)
same,IC50,[13],> 66.6 µM (inactive)
same,IC50,[14],5.35 µM (active)
same,IC50,[15],98.6 µM (active)

# — ChEMBL document CHEMBL1201862, “PubChem BioAssay data set” (2004)
